From patent US11248254B2, “Method and system employing distinguishable polymerases for detecting ternary complexes and identifying cognate nucleotides” (Omniome, Inc., priority 2016, dated 2022)

Key:
Format in all cases: binding
[1] = molecular target: T1, ternary complex of primed template nucleic acid, Bst DNA polymerase large fragment and cognate nucleotide (Geobacillus stearothermophilus, UniProt P52026); assay: Biolayer interferometry: formation and retention of ternary complexes with different non-catalytic metal ions; conditions: 2 mM test metal ion; for binding signal when ternary complexes formed on primed template nucleic acid: 100 μM correct nucleotide, 200 nM Bst polymerase, 60 s binding (FIG. 2); for ternary complex decay / stability following washing: wash without polymerase, 10 μM correct dNTP, 100 μM incorrect dNTP, 300 s (FIG. 2); for ternary complex binding signal following a wash step, expressed as a percentage of the maximum signal: wash in absence of non-bound polymerase, baseline = signal at initial nucleotide contact
T1 construct: 200 nM unlabeled Bst DNA polymerase large fragment
T1 sequence (P52026 289-876 limits assumed): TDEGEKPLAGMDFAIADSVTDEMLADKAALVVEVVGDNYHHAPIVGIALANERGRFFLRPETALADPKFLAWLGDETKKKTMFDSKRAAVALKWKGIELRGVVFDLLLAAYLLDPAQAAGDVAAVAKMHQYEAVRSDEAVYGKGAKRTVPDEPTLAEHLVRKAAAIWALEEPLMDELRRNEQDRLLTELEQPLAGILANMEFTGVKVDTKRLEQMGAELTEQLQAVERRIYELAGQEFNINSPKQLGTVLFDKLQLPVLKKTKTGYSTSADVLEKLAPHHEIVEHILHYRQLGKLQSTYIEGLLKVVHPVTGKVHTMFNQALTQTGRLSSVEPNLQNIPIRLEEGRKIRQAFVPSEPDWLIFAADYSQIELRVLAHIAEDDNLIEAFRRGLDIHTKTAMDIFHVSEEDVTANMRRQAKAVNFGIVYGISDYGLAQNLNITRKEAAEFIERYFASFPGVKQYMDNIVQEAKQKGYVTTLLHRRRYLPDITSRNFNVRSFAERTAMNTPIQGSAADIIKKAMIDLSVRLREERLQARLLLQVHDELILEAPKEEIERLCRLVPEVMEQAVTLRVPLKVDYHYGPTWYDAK
Text: A FORTEBIO® (Menlo Park, Calif.) Octet instrument employing biolayer interferometry to measure binding reactions at the surface of a fiber optic tip was used in a multiwell plate format to assess formation and stability of ternary complexes in the presence of different non-catalytic metal ions. Template nucleic acid strands biotinylated at their 5′-ends were used to immobilize the primed template nucleic acid onto fiber optic tips functionalized with streptavidin (SA) according to standard procedures. Tips were washed in a Tris-buffered solution containing 200 mM KCl, 160 mM potassium glutamate, and 0.01% Tween-20 before commencing the cycling protocol. Binding reactions conducted using 2 mM of the test metal ion (i.e., 2 mM of the metal salt) were carried out in serial fashion using examination buffers that contained Tris-HCl (pH 8.0), 220 mM KCl, 160 mM potassium glutamate, 0.01% Tween-20, 1 mM β-mercaptoethanol, 100 μg/ml BSA, the correct nucleotide at a concentration of 100 μM, and 200 nM unlabeled Bst DNA polymerase large fragment. Salts used in the testing procedure included: SrCl2, Na3VO4, EuCl3, and CuSO4. Examination buffers in this procedure were supplemented with DMSO and betaine to control DNA secondary structure. Binding steps were carried out for 60 seconds, and were followed by wash steps using a buffer that omitted polymerase, but included 10 μM of the correct dNTP, 100 μM of the incorrect dNTP, and 2 mM of the test metal ion. Retention of the ternary complex was measured over the course of 300 seconds. Surviving ternary complexes were stripped from the primed template by exposure to a solution containing 30 mM Tris-HCl (pH 8.0), 1 M NaCl, 4 mM EDTA, 4 mM DTPA, 0.2% SDS, 0.05% Tween-20, and 3% Tween-80 for a period of 30 seconds. This was followed by exposure to a regeneration solution made Tris-HCl (pH 8.0), 220 mM KCl, 160 mM potassium glutamate, 0.01% Tween-20, 1 mM β-mercaptoethanol, 100 μg/ml BSA for 20 seconds before commencing binding of polymerase and cognate nucleotide in the presence of the next test metal ion.

[2] = molecular target: T2, Bsu DNA polymerase large fragment with primed template nucleic acid (Bacillus subtilis, UniProt O34996); assay: Biolayer interferometry: discrimination between ternary (cognate dCTP) and binary (non-cognate dGTP) complex formation, KCl titration; conditions: 2 mM stabilizing cation, KCl 100-650 mM, potassium glutamate 80-640 mM (FIGS. 3, 4)
T2 construct: 350 U/ml Bsu DNA polymerase large fragment
T2 sequence (O34996 297-880 limits assumed): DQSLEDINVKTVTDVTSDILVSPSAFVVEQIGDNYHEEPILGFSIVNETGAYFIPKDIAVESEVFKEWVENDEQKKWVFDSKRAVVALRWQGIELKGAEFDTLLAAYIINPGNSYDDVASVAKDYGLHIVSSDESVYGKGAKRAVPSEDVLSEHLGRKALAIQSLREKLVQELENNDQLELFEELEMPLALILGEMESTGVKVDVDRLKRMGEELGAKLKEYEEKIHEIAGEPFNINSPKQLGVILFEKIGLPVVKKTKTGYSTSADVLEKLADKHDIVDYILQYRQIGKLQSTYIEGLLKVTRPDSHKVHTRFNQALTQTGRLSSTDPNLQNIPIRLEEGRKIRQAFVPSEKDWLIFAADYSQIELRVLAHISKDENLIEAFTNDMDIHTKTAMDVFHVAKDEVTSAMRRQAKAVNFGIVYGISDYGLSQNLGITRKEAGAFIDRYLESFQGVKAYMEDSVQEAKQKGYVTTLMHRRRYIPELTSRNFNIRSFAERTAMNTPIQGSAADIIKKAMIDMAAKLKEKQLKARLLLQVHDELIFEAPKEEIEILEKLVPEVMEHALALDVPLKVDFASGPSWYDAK
Text: Materials and methods used in the procedure were as follows. The FORTEBIO® OCTET® instrument employing biolayer interferometry was used to measure binding reactions at the surface of a fiber optic tip in a multiwell plate format to investigate differential formation of binary and ternary complexes. Template strands biotinylated at their 5′-ends were used to immobilize the primed template nucleic acid onto fiber optic tips functionalized with streptavidin (SA) according to standard procedures. The next correct nucleotide for the biotinylated template DNA was dCTP (with dGTP being used as the model incorrect nucleotide). Tips were first equilibrated in a Tris-buffered solution containing 30 mM Tris-HCl (pH 8.0), and 0.1 mM EDTA before commencing the cycling protocol. […] When using a single contacting step to effect binding of polymerase and nucleotide to the primed template nucleic acid, the binding step was 60 seconds long, with binding interactions being monitored continuously. […] Results from interferometry monitoring were analyzed to identify formation of ternary complexes (i.e., identifying cognate nucleotide) or binary complexes (i.e., identifying non-cognate nucleotide).

[3] = system: tested polymerases with primed template nucleic acid; assay: Discrimination between correct and incorrect nucleotides at higher metal cation concentration; conditions: cation greater than about 5 mM; 150 mM to 300 mM monovalent metal cations

SMILES	binding signal when ternary complexes formed on primed template nucleic acid [1]	ternary complex decay / stability following washing [1]	ternary complex binding signal following a wash step, expressed as a percentage of the maximum signal [1]	discrimination between ternary and binary complex formation [2]	ability of polymerase to discriminate between correct and incorrect nucleotides [3]
O=S(=O)([O-])[O-].[Cu+2] [Cu^2+, CuSO4]	moderately high binding signals	rapid decay	–	–	–
[Cl][Eu]([Cl])[Cl] [Eu^3+, EuCl3]	high binding signals	substantially more stable	about 80%	good discrimination between ternary and binary complex formation was achievable	reduced abilities to discriminate between correct and incorrect nucleotides
[Ni+2] [Ni^2+]	–	–	–	–	This was not the case
[Cl-].[Cl-].[Sr+2] [Sr^2+, SrCl2]	high binding signals	slower than observed with V^5+ and Cu^2+ ions	about 40%	–	This was not the case
[Tb+3] [Tb^3+]	–	substantially similar to the use of Eu^3+ ions	substantially similar to trials conducted using Eu^3+ cations	good discrimination between ternary and binary complex formation was achievable	reduced abilities to discriminate between correct and incorrect nucleotides
[Na+].[Na+].[Na+].[O]=[V]([O-])([O-])[O-] [V^5+, Na3VO4]	moderately high binding signals	rapid decay	–	–	–
